One data set addresses T1, GLP-1 receptor (Homo sapiens, UniProt P43220).
T1 construct: expressed in transfected cells
The experiment in a line: GLP-1 activity assay (cAMP HTRF). In kind it is cell-based. Conditions: U20S-GLP-1R stable transfected cell line, 30 minutes at 37°C. The procedure: The agonistic effect of the test substance on the GLP-1 receptor was determined using a U20S-GLP-1R stable transfected cell line and a HTRF detection method.
• 1. According to the experimental procedure of the cAMP-Gs Dynamic HTRF kit, the 5x Stimulation buffer (SB) provided in the kit was diluted to 1xSB with ddH2O. IBMX was added to the 1xSB solution to a final concentration of 500 µM to prevent degradation of cAMP. Then, a working solution of the test substance was prepared using 1xSB and subjected to a series of gradient dilutions. • 2. U2OS-GLP-1R cells were digested and collected. After resuspending and counting, the cell density was diluted to 2x10^6 cells/mL using 1xSB solution. Then, 5 µL per well was seeded into a 384-well cell culture plate, resulting in 10,000 cells per well. • 3. The test substances were added at different concentrations into the corresponding cell wells at 5 µL per well, and incubated in a 37°C incubator for 30 minutes. • 4. According to the steps provided by the cAMP-Gs Dynamic HTRF kit, cAMP standard solutions of different concentrations were prepared and added into the 384-well plate. • 5. The cAMP d2 reagent and Eu Cryptate antibody provided in the kit were diluted to 1x using Lysis & Detection Buffer. Then, d2 and Eu solutions were added to the 384-well plate, 5 µL each well. After incubation at room temperature for 2 hours, the plate was read using the HTRF module (665/620 nm) of a microplate reader, and experimental data was collected. • 6. A curve was plotted using the signal value versus the compound concentration. Curve fitting and EC50 calculation were performed using nonlinear regression of GraphPad Prism software. […] Table 2: GLP-1 Activity of the compounds

Data set [1] in a line: Pharmacokinetic experiment in rats. In kind it is in vivo. Conditions: rat, plasma; SD rats, male, intravenous, 0.2 mg/kg, sampling to 72 hours. The procedure:
Dulbecco's phosphate buffered saline (DPBS) (Batch No.: F2326001, Shanghai Aladdin Biochemical Technology Co., Ltd.). LC-MS instrument (Thermo TSQ Altis Plus).
SD rats: Male, 180-250g, purchased from Guangdong Vital River Laboratory Animal Technology Co., Ltd.
The test sample powder was accurately weighed and completely dissolved in Dulbecco's phosphate buffered saline free of Ca^2+/Mg^2+, mixed well to obtain a 0.1 mg/mL solution, and administered intravenously at a dose of 2 mL/kg.
After intravenous administration to the rats, approximately 200 µL of venous blood was collected into EDTA-K2 anticoagulant-coated EP tubes pre-dose and post-dose at 0, 0.5, 2, 5, 24, 48, and 72 hours . The blood was centrifuged at 12,000 rpm for 2 minutes. The plasma was collected and stored frozen at -20°C until analysis.
A certain amount of the test sample was accurately weighed and dissolved in DMSO to prepare a 2 mg/mL stock solution. An appropriate amount of the compound stock solution was accurately pipetted and diluted with an acetonitrile-aqueous solution (ACN:H2O=1:1) to prepare a series of standard solutions. […]
After determining the plasma drug concentration by LC-MS, the pharmacokinetic parameters in rats post-administration were calculated using a non-compartmental model with WinNonlin 6.1 software.

T1 sequence (P43220 24-463, species assumed): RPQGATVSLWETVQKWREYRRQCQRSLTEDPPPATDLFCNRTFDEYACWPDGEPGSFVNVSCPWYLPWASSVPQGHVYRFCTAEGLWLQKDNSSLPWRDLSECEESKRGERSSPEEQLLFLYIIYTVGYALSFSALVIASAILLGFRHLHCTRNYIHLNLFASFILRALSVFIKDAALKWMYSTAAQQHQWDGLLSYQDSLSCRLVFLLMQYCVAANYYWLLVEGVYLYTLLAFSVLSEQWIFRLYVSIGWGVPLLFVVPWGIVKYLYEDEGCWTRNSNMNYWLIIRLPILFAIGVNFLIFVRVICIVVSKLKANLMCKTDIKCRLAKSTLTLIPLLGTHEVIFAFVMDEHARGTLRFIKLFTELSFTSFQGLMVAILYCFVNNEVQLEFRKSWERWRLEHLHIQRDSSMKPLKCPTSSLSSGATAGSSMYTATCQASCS

`CC[C@H](C)[C@H](NC(=O)[C@H](Cc1ccccc1)NC(=O)[C@H](CCC(=O)O)NC(=O)[C@H](CCCCNC(=O)COCCOCCNC(=O)COCCOCCNC(=O)CC[C@H](NC(=O)CCCCCCCCCCCCCCCCC(=O)O)C(=O)O)NC(=O)[C@H](C)NC(=O)[C@H](C)NC(=O)[C@H](CCC(N)=O)NC(=O)CNC(=O)[C@H](CCC(=O)O)NC(=O)[C@H](CC(C)C)NC(=O)[C@H](Cc1ccc(O)cc1)NC(=O)[C@H](CO)NC(=O)[C@H](CO)NC(=O)[C@@H](NC(=O)[C@H](CC(=O)O)NC(=O)[C@H](CO)NC(=O)[C@@H](NC(=O)[C@H](Cc1ccccc1)NC(=O)[C@@H](NC(=O)CNC(=O)[C@H](CCC(=O)O)NC(=O)C(C)(C)NC(=O)[C@H](Cc1c[nH]cn1)NC(=O)CN(CCNC(=O)CC[C@H](NC(=O)CCCCCCCCCCCCCCC(=O)O)C(=O)O)C(=O)[C@@H]1CCCN1)[C@@H](C)O)[C@@H](C)O)C(C)C)C(=O)N[C@@H](C)C(=O)N[C@@H](Cc1c[nH]c2ccccc12)C(=O)N[C@@H](CC(C)C)C(=O)N[C@H](C(=O)N[C@@H](CCCNC(=N)N)C(=O)NCC(=O)N[C@@H](CCCNC(=N)N)C(=O)NCC(=O)O)C(C)C` [Example 17] had a concentration for a half-maximal effect (EC50) at GLP-1 receptor of 5.7 nM. This compound gave an AUC(0-t) in data set [1] of 99.3 µg·h/mL.

Take `CC[C@H](C)[C@H](NC(=O)[C@H](Cc1ccccc1)NC(=O)[C@H](CCC(=O)O)NC(=O)[C@H](CCCCNC(=O)COCCOCCNC(=O)COCCOCCNC(=O)CC[C@H](NC(=O)CCCCCCCCCCCCCCCCC(=O)O)C(=O)O)NC(=O)[C@H](C)NC(=O)[C@H](C)NC(=O)[C@H](CCC(N)=O)NC(=O)CNC(=O)[C@H](CCC(=O)O)NC(=O)[C@H](CC(C)C)NC(=O)[C@H](Cc1ccc(O)cc1)NC(=O)[C@H](CO)NC(=O)[C@H](CO)NC(=O)[C@@H](NC(=O)[C@H](CC(=O)O)NC(=O)[C@H](CO)NC(=O)[C@@H](NC(=O)[C@H](Cc1ccccc1)NC(=O)[C@@H](NC(=O)CNC(=O)[C@H](CCC(=O)O)NC(=O)C(C)(C)NC(=O)[C@H](Cc1c[nH]cn1)NC(=O)CN(CCNC(=O)C[C@H](NC(=O)CCCCCCCCCCCCCCC(=O)O)C(=O)O)C(=O)CN)[C@@H](C)O)[C@@H](C)O)C(C)C)C(=O)N[C@@H](C)C(=O)N[C@@H](Cc1c[nH]c2ccccc12)C(=O)N[C@@H](CC(C)C)C(=O)N[C@H](C(=O)N[C@@H](CCCNC(=N)N)C(=O)NCC(=O)N[C@@H](CCCNC(=N)N)C(=O)NCC(=O)O)C(C)C` [Example 2]: the midpoint of the response at GLP-1 receptor, the EC50, lay at 9.3 nM. Also, in data set [1], the AUC(0-t) worked out at 101 µg·h/mL.

Regarding `CC[C@H](C)[C@H](NC(=O)[C@H](Cc1ccccc1)NC(=O)[C@H](CCC(=O)O)NC(=O)[C@H](CCCCNC(=O)COCCOCCNC(=O)COCCOCCNC(=O)CC[C@H](NC(=O)CCCCCCCCCCCCCCCCC(=O)O)C(=O)O)NC(=O)[C@H](C)NC(=O)[C@H](C)NC(=O)[C@H](CCC(N)=O)NC(=O)CNC(=O)[C@H](CCC(=O)O)NC(=O)[C@H](CC(C)C)NC(=O)[C@H](Cc1ccc(O)cc1)NC(=O)[C@H](CO)NC(=O)[C@H](CO)NC(=O)[C@@H](NC(=O)[C@H](CC(=O)O)NC(=O)[C@H](CO)NC(=O)[C@@H](NC(=O)[C@H](Cc1ccccc1)NC(=O)[C@@H](NC(=O)CNC(=O)[C@H](CCC(=O)O)NC(=O)C(C)(C)NC(=O)[C@H](Cc1c[nH]cn1)NC(=O)CN(CCOCCOCCNC(=O)C[C@H](NC(=O)CCCCCCCCCCCCCCC(=O)O)C(=O)O)C(=O)CN)[C@@H](C)O)[C@@H](C)O)C(C)C)C(=O)N[C@@H](C)C(=O)N[C@@H](Cc1c[nH]c2ccccc12)C(=O)N[C@@H](CC(C)C)C(=O)N[C@H](C(=O)N[C@@H](CCCNC(=N)N)C(=O)NCC(=O)N[C@@H](CCCNC(=N)N)C(=O)NCC(=O)O)C(C)C` [Example 4], at GLP-1 receptor, the EC50 worked out at 16.9 nM.

As for `CC[C@H](C)[C@H](NC(=O)[C@H](Cc1ccccc1)NC(=O)[C@H](CCC(=O)O)NC(=O)[C@H](CCCCNC(=O)COCCOCCNC(=O)COCCOCCNC(=O)CC[C@H](NC(=O)CCCCCCCCCCCCCCCCC(=O)O)C(=O)O)NC(=O)[C@H](C)NC(=O)[C@H](C)NC(=O)[C@H](CCC(N)=O)NC(=O)CNC(=O)[C@H](CCC(=O)O)NC(=O)[C@H](CC(C)C)NC(=O)[C@H](Cc1ccc(O)cc1)NC(=O)[C@H](CO)NC(=O)[C@H](CO)NC(=O)[C@@H](NC(=O)[C@H](CC(=O)O)NC(=O)[C@H](CO)NC(=O)[C@@H](NC(=O)[C@H](Cc1ccccc1)NC(=O)[C@@H](NC(=O)CNC(=O)[C@H](CCC(=O)O)NC(=O)C(C)(C)NC(=O)[C@H](Cc1c[nH]cn1)NC(=O)CN(CCOCCOCCNC(=O)CC[C@H](NC(=O)CCCCCCCCCCCCCCC(=O)O)C(=O)O)C(=O)CN)[C@@H](C)O)[C@@H](C)O)C(C)C)C(=O)N[C@@H](C)C(=O)N[C@@H](Cc1c[nH]c2ccccc12)C(=O)N[C@@H](CC(C)C)C(=O)N[C@H](C(=O)N[C@@H](CCCNC(=N)N)C(=O)NCC(=O)N[C@@H](CCCNC(=N)N)C(=O)NCC(=O)O)C(C)C` [Example 3], the half-maximal effective concentration (EC50) on GLP-1 receptor was determined as 15.7 nM.

The EC50 is the concentration that produces a half-maximal response. A high value points to a need for much substance. Broadly, the AUC(0-t) is the area under the concentration-time curve up to a stated or last time point. The low end stands for low exposure, the high end for high exposure.

The values are drawn from patent publication EP4806909A1, “GLP-1 COMPOUND, AND PREPARATION METHOD THEREFOR AND USE THEREOF” (Shenzhen Salubris Pharmaceuticals Co., Ltd., priority 2023, dated 2025).
